Reference: patent US12692223B2, “Phenyl-sulfamoyl-benzoic acid derivatives as ERAP1-modulators” (GREY WOLF THERAPEUTICS LIMITED, priority 2021, dated 2026)

molecular target: T1, ERAP1 (Homo sapiens, UniProt Q9NZ08); assay: ERAP1 mediated hydrolysis of an amide substrate measured in a biochemical system (10-mer inhibition assay); details: purified ERAP1(37-941)-10His; 10-mer substrate; 23° C. for 1 h; excitation 279 nm, emission 355 nm; read-out: IC50 vs Decapeptide WRVYEKC(Dnp)ALK-acid (where Dnp is Dinitrophenyl maleimide) (10-mer)
T1 construct: Purified ERAP1(37-941)-10His (ERAP1)
T1 sequence (Q9NZ08 37-941): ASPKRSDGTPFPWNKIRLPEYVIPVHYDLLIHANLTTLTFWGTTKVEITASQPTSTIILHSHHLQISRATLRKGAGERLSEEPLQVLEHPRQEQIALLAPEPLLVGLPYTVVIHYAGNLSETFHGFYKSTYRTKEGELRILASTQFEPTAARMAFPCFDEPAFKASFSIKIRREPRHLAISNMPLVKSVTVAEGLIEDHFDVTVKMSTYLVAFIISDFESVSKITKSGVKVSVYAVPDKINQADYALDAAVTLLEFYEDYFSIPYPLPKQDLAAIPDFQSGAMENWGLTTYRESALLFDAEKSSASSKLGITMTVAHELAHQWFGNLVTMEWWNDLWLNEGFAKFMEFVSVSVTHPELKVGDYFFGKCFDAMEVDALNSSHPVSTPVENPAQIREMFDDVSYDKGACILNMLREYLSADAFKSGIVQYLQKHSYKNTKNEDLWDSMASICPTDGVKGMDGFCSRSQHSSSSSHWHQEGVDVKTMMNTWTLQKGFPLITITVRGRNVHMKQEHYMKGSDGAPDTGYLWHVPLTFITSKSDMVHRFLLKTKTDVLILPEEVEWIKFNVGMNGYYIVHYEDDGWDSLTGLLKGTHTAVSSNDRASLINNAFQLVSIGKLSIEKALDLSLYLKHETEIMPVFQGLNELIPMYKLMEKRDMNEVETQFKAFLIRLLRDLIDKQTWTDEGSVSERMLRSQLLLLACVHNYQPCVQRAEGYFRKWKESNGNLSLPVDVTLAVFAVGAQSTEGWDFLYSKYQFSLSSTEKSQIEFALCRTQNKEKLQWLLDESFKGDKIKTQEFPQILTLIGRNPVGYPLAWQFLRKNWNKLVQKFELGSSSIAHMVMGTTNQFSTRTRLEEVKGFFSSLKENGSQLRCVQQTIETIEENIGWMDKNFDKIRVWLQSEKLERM
Outline: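 Purified ERAP1(37-941)-10His in 25 mM Bis-tris propane, 0.05% HPMC, pH 7.75, with compound, then 100 μM 10-mer WRVYEKC(Dnp)ALK or 240 μM L-AMC added (stock concentrations before 1:1 mixing), 1 h at 23 °C. Fluorescence read at ex 279/em 355 nm (10-mer) or ex 365/em 442 nm (L-AMC); IC50 from 4-parameter fit.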

SMILES	IC50 [nM]
N#Cc1cc(Cl)c(OC2CCCC2)c(NS(=O)(=O)c2cc(C(=O)O)ccc2C2CC2)c1 [Example 19, 3-(N-(3-chloro-5-cyano-2-(cyclopentyloxy)phenyl)sulfamoyl)-4-cyclopropylbenzoic acid]	1 to 5
O=C(O)c1ccc(C2CC2)c(S(=O)(=O)Nc2cc(-c3ccns3)ccc2OC2CCCC2)c1 [Example 20, 3-(N-(2-(cyclopentyloxy)-5-(isothiazol-5-yl)phenyl)sulfamoyl)-4-cyclopropylbenzoic acid]	< 1
O=C(O)c1ccc(C2CC2)c(S(=O)(=O)Nc2cc(-c3ccns3)c(F)cc2OC2CCCC2)c1 [Example 21, 3-(N-(2-(cyclopentyloxy)-4-fluoro-5-(isothiazol-5-yl)phenyl)sulfamoyl)-4-cyclopropylbenzoic acid]	1 to 5
O=C(O)c1ccc(C2CC2)c(S(=O)(=O)Nc2cc(-c3ccns3)c(Cl)cc2OC2CCCC2)c1 [Example 22, 3-(N-(4-chloro-2-(cyclopentyloxy)−5-(isothiazol-5-yl)phenyl)sulfamoyl)-4-cyclopropylbenzoic acid]	< 1
Cc1oncc1-c1ccc(OC2CCCC2)c(NS(=O)(=O)c2cc(C(=O)O)ccc2C2CC2)c1 [Example 23, 3-(N-(2-(cyclopentyloxy)-5-(5-methylisoxazol-4-yl)phenyl)sulfamoyl)-4-cyclopropylbenzoic acid]	< 1
Cc1oncc1-c1cc(NS(=O)(=O)c2cc(C(=O)O)ccc2C2CC2)c(OC2CCCC2)cc1F [Example 24, 3-(N-(2-(cyclopentyloxy)-4-fluoro-5-(5-methylisoxazol-4-yl)phenyl)sulfamoyl)-4-cyclopropylbenzoic acid]	< 1
Cc1oncc1-c1cc(NS(=O)(=O)c2cc(C(=O)O)ccc2C2CC2)c(OC2CCCC2)cc1Cl [Example 25, 3-(N-(4-chloro-2-(cyclopentyloxy)−5-(5-methylisoxazol-4-yl)phenyl)sulfamoyl)-4-cyclopropylbenzoic acid]	< 1
Cc1cc(C2CC2)c(S(=O)(=O)Nc2cc(C#N)c(Cl)cc2OC2CCCC2)cc1C(=O)O [Example 26, 5-(N-(4-chloro-5-cyano-2-(cyclopentyloxy)phenyl)sulfamoyl)-4-cyclopropyl-2-methylbenzoic acid]	1 to 5
CC1(COc2cc(Cl)c(C#N)cc2NS(=O)(=O)c2cc(C(=O)O)ccc2C2CC2)CCC1 [Example 27, 3-(N-(4-chloro-5-cyano-2-((1-methylcyclobutyl)methoxy)phenyl)sulfamoyl)-4-cyclopropylbenzoic acid]	< 1
N#Cc1cc(NS(=O)(=O)c2cc(C(=O)O)ccc2C2CC2)c(OCC2CCOC2)cc1Cl (stereo not shown) [Example 28, 3-(N-(4-chloro-5-cyano-2-((tetrahydrofuran-3-yl)methoxy)phenyl)sulfamoyl)-4-cyclopropylbenzoic acid]	1 to 5
N#Cc1cc(NS(=O)(=O)c2cc(C(=O)O)ccc2C2CC2)c(OC2CCC23COC3)cc1Cl (stereo not shown) [Example 29, 3-(N-(2-((2-oxaspiro[3.3]heptan-5-yl)oxy)-4-chloro-5-cyanophenyl)sulfamoyl)-4-cyclopropylbenzoic acid]	< 1
C#CC1(Oc2cc(Cl)c(C#N)cc2NS(=O)(=O)c2cc(C(=O)O)ccc2C2CC2)CCCC1 [Example 30, 3-(N-(4-chloro-5-cyano-2-((1-ethynylcyclopentyl)oxy)phenyl)sulfamoyl)-4-cyclopropylbenzoic acid]	1 to 5
N#Cc1cc(NS(=O)(=O)c2cc(C(=O)O)ccc2C2CC2)c(OCC2CC(F)(F)C2)cc1Cl [Example 31, 3-(N-(4-chloro-5-cyano-2-((3,3-difluorocyclobutyl)methoxy)phenyl)sulfamoyl)-4-cyclopropylbenzoic acid]	1 to 5
CC1(COc2cc(Cl)c(C#N)cc2NS(=O)(=O)c2cc(C(=O)O)ccc2C2CC2)COC1 [Example 32, 3-(N-(4-chloro-5-cyano-2-((3-methyloxetan-3-yl)methoxy)phenyl)sulfamoyl)-4-cyclopropylbenzoic acid]	1 to 5
CC1(C)CC(Oc2cc(Cl)c(C#N)cc2NS(=O)(=O)c2cc(C(=O)O)ccc2C2CC2)C1 [Example 33, 3-(N-(4-chloro-5-cyano-2-(3,3-dimethylcyclobutoxy)phenyl)sulfamoyl)-4-cyclopropylbenzoic acid]	< 1
N#Cc1cc(NS(=O)(=O)c2cc(C(=O)O)ccc2C2CC2)c(OC2CC3(CC3)C2)cc1Cl [Example 34, 3-(N-(4-chloro-5-cyano-2-(spiro[2.3]hexan-5-yloxy)phenyl)sulfamoyl)-4-cyclopropylbenzoic acid]	< 1
N#Cc1cc(NS(=O)(=O)c2cc(C(=O)O)ccc2C2CC2)c(OCC2CCC2)cc1Cl [Example 35, 3-(N-(4-chloro-5-cyano-2-(cyclobutylmethoxy)phenyl)sulfamoyl)-4-cyclopropylbenzoic acid]	< 1

SMILES	IC50 [nM]
N#Cc1cc(NS(=O)(=O)c2cc(C(=O)O)ccc2C2CC2)c(OCC2COC2)cc1Cl [Example 36, 3-(N-(4-chloro-5-cyano-2-(oxetan-3-ylmethoxy)phenyl)sulfamoyl)-4-cyclopropylbenzoic acid]	1 to 5
N#Cc1cc(NS(=O)(=O)c2cc(C(=O)O)ccc2C2CC2)c(OCC2(F)COC2)cc1Cl [Example 37, 3-(N-(4-chloro-5-cyano-2-((3-fluorooxetan-3-yl)methoxy)phenyl)sulfamoyl)-4-cyclopropylbenzoic acid]	1 to 5
CN1CC(COc2cc(Cl)c(C#N)cc2NS(=O)(=O)c2cc(C(=O)O)ccc2C2CC2)C1 [Example 38, 3-(N-(4-chloro-5-cyano-2-((1-methylazetidin-3-yl)methoxy)phenyl)sulfamoyl)-4-cyclopropylbenzoic acid]	> 5
N#Cc1cc(NS(=O)(=O)c2cc(C(=O)O)ccc2C2CC2)c(OC2CC3(CCC3)C2)cc1Cl [Example 39, 3-(N-(4-chloro-5-cyano-2-(spiro[3.3]heptan-2-yloxy)phenyl)sulfamoyl)-4-cyclopropylbenzoic acid]	1 to 5
N#Cc1cc(NS(=O)(=O)c2cc(C(=O)O)ccc2C2CC2)c(O[C@H]2C[C@H](C(F)(F)F)C2)cc1Cl [Example 40, 3-(N-(4-chloro-5-cyano-2-((trans)−3-(trifluoromethyl)cyclobutoxy)phenyl)sulfamoyl)-4-cyclopropylbenzoic acid]	1 to 5
N#Cc1cc(NS(=O)(=O)c2cc(C(=O)O)ccc2C2CC2)c(O[C@@H]2C[C@@H]3C[C@@H]3C2)cc1Cl [Example 41, Cis-3-(N-(2-(bicyclo[3.1.0]hexan-3-yloxy)− 4-chloro-5-cyanophenyl)sulfamoyl)-4-cyclopropylbenzoic acid]	< 1
CC(Oc1cc(Cl)c(C#N)cc1NS(=O)(=O)c1cc(C(=O)O)ccc1C1CC1)C1CCC1 (stereo not shown) [Example 42, 3-(N-(4-chloro-5-cyano-2-(1-cyclobutylethoxy)phenyl)sulfamoyl)-4-cyclopropylbenzoic acid]	< 1
N#Cc1cc(NS(=O)(=O)c2cc(C(=O)O)ccc2C2CC2)c(OCC2CNC2)cc1Cl [Example 43, 3-(N-(2-(azetidin-3-ylmethoxy)-4-chloro-5-cyanophenyl)sulfamoyl)-4-cyclopropylbenzoic acid]	> 5
N#Cc1cc(NS(=O)(=O)c2cc(C(=O)O)ccc2C2CC2)c(OCC2CCCC2)cc1Cl [Example 44, 3-(N-(4-chloro-5-cyano-2-(cyclopentylmethoxy)phenyl)sulfamoyl)-4-cyclopropylbenzoic acid]	< 1
CC(Oc1cc(Cl)c(C#N)cc1NS(=O)(=O)c1cc(C(=O)O)ccc1C1CC1)C1COC1 (stereo not shown) [Example 45, 3-(N-(4-chloro-5-cyano-2-(1-(oxetan-3-yl)ethoxy)phenyl)sulfamoyl)-4-cyclopropylbenzoic acid]	1 to 5
CO[C@H]1C[C@H](COc2cc(Cl)c(C#N)cc2NS(=O)(=O)c2cc(C(=O)O)ccc2C2CC2)C1 [Example 46, 3-(N-(4-chloro-5-cyano-2-((trans-3-methoxycyclobutyl)methoxy)phenyl)sulfamoyl)-4-cyclopropylbenzoic acid]	1 to 5
CO[C@H]1C[C@@H](COc2cc(Cl)c(C#N)cc2NS(=O)(=O)c2cc(C(=O)O)ccc2C2CC2)C1 [Example 47, 3-(N-(4-chloro-5-cyano-2-((cis-3-methoxycyclobutyl)methoxy)phenyl)sulfamoyl)-4-cyclopropylbenzoic acid]	< 1
N#Cc1cc(NS(=O)(=O)c2cc(C(=O)O)ccc2C2CC2)c(O[C@@H]2CCOC2)cc1Cl [Example 48, (R)-3-(N-(4-chloro-5-cyano-2-((tetrahydrofuran-3-yl)oxy)phenyl)sulfamoyl)-4-cyclopropylbenzoic acid]	< 1
N#Cc1cc(NS(=O)(=O)c2cc(C(=O)O)ccc2C2CC2)c(O[C@H]2CCOC2)cc1Cl [Example 49, (S)-3-(N-(4-chloro-5-cyano-2-((tetrahydrofuran-3-yl)oxy)phenyl)sulfamoyl)-4-cyclopropylbenzoic acid]	1 to 5
O=C(O)c1ccc(C2CC2)c(S(=O)(=O)Nc2cc(-c3ccns3)c(Cl)cc2OC2CC(F)(F)C2)c1 [Example 50, 3-(N-(4-chloro-2-(3,3-difluorocyclobutoxy)-5-(isothiazol-5-yl)phenyl)sulfamoyl)-4-cyclopropylbenzoic acid]	< 1
O=C(O)c1ccc(C2CC2)c(S(=O)(=O)Nc2cc(-c3ccns3)c(Cl)cc2OC2CCC2)c1 [Example 51, 3-(N-(4-chloro-2-cyclobutoxy-5-(isothiazol-5-yl)phenyl)sulfamoyl)-4-cyclopropylbenzoic acid]	< 1
N#Cc1cc(NS(=O)(=O)c2cc(C(=O)O)ccc2C2CC2)c(OC2CC3(COC3)C2)cc1Cl [Example 52, 3-(N-(2-((2-oxaspiro[3.3]heptan-6-yl)oxy)-4-chloro-5-cyanophenyl)sulfamoyl)-4-cyclopropylbenzoic acid]	> 5
